Results: patent US20240400577A1, “MODULATORS OF PROTEIN KINASES” (VIBLIOME THERAPEUTICS, LLC, priority 2021, published 2024)
pIC50: −log10 of the molar value.

Assays:
Test in all cases: Kinase panel enzymatic inhibition assay (Nanosyn)
Assay type in all cases: biochemical
TYRO3 = target: T1, TYRO3 (Homo sapiens, UniProt Q06418); conditions: ATP at Km; 30-minute pre-incubation; read-out: kinase inhibition in terms of IC50, TYRO3
T1 construct: purchased Nanosyn
T1 sequence (Q06418 41-890): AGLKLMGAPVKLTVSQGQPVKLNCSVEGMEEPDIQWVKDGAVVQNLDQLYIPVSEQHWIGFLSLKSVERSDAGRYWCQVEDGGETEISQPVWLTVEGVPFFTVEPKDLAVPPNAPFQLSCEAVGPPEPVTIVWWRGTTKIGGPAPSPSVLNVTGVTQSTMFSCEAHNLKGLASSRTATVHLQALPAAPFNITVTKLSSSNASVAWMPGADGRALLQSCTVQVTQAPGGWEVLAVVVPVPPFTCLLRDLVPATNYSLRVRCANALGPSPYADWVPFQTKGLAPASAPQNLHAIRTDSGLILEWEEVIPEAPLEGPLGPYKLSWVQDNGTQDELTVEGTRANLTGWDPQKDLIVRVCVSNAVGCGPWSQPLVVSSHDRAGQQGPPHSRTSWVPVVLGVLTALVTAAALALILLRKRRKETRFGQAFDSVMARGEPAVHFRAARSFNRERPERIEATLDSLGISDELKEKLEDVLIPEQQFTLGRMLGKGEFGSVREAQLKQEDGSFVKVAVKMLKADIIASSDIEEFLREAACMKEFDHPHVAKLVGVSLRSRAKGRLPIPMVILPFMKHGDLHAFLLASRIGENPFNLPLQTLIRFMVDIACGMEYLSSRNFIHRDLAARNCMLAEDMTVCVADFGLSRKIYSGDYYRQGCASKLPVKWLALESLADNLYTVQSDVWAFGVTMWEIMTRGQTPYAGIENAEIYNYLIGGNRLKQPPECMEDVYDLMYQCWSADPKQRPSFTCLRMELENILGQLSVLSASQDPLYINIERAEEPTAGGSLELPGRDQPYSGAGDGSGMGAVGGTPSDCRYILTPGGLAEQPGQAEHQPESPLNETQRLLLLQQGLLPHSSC
Outline: (§1)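 Inhibition is expressed as percent at 5 μM or as IC50, with ATP set at the Km of each kinase and a 30-minute compound pre-incubation. Detection used an accepted enzymatic format such as Caliper mobility shift.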

AXL = target: T2, AXL (Homo sapiens, UniProt P30530); conditions: ATP at Km; 30-minute pre-incubation; read-out: kinase inhibition in terms of IC50, AXL
T2 construct: Nanosyn (contract laboratory that ran the panel)
T2 sequence (P30530 26-894): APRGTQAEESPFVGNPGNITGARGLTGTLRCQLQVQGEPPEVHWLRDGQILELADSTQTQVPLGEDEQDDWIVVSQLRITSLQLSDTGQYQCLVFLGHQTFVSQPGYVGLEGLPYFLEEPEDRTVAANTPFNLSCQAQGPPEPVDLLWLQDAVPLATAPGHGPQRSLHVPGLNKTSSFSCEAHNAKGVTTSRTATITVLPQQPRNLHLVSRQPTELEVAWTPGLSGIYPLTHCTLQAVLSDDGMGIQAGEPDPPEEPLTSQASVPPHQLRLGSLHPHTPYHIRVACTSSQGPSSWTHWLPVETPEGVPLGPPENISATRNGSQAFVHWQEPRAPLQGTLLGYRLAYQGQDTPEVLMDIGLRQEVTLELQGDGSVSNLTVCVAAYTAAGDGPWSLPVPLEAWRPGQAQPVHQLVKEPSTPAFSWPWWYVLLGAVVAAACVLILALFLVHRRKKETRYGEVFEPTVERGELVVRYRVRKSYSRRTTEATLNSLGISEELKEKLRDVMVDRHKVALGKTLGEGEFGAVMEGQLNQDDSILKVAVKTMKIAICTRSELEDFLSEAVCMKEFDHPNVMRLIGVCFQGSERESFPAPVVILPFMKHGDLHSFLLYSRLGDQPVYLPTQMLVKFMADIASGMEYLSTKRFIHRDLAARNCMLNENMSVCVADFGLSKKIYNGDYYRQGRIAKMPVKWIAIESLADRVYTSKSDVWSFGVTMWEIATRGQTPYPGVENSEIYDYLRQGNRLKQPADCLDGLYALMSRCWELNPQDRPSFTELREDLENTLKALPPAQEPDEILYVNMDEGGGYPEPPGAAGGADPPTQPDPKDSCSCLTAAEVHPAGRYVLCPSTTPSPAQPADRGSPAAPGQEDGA
Outline: as §1

ITK = target: T3, ITK (Homo sapiens, UniProt Q08881); conditions: ATP at Km; 30-minute pre-incubation; read-out: kinase inhibition in terms of IC50, ITK
T3 construct: Nanosyn (contract laboratory that ran the panel)
T3 sequence (Q08881 1-620): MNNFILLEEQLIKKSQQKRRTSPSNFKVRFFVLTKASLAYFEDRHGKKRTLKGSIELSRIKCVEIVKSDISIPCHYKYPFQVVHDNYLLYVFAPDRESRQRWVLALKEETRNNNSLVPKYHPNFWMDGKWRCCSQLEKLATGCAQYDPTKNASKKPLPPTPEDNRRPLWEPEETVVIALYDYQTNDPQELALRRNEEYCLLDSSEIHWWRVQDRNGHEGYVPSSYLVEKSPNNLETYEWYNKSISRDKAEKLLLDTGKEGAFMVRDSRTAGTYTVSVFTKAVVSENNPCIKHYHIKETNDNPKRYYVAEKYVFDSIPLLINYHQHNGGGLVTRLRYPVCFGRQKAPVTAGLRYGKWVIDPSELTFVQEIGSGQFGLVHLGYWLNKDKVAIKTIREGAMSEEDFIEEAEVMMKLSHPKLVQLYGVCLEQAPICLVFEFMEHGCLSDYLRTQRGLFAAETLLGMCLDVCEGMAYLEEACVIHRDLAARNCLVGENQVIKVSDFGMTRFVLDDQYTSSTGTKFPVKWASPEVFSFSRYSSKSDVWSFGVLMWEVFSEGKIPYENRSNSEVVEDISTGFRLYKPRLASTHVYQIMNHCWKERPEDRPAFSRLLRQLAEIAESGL
Outline: as §1

TYK2 = target: T4, TYK2 (Homo sapiens, UniProt P29597); conditions: ATP at Km; 30-minute pre-incubation; read-out: kinase inhibition in terms of IC50, TYK2
T4 construct: purchased Nanosyn
T4 sequence (P29597 whole entry): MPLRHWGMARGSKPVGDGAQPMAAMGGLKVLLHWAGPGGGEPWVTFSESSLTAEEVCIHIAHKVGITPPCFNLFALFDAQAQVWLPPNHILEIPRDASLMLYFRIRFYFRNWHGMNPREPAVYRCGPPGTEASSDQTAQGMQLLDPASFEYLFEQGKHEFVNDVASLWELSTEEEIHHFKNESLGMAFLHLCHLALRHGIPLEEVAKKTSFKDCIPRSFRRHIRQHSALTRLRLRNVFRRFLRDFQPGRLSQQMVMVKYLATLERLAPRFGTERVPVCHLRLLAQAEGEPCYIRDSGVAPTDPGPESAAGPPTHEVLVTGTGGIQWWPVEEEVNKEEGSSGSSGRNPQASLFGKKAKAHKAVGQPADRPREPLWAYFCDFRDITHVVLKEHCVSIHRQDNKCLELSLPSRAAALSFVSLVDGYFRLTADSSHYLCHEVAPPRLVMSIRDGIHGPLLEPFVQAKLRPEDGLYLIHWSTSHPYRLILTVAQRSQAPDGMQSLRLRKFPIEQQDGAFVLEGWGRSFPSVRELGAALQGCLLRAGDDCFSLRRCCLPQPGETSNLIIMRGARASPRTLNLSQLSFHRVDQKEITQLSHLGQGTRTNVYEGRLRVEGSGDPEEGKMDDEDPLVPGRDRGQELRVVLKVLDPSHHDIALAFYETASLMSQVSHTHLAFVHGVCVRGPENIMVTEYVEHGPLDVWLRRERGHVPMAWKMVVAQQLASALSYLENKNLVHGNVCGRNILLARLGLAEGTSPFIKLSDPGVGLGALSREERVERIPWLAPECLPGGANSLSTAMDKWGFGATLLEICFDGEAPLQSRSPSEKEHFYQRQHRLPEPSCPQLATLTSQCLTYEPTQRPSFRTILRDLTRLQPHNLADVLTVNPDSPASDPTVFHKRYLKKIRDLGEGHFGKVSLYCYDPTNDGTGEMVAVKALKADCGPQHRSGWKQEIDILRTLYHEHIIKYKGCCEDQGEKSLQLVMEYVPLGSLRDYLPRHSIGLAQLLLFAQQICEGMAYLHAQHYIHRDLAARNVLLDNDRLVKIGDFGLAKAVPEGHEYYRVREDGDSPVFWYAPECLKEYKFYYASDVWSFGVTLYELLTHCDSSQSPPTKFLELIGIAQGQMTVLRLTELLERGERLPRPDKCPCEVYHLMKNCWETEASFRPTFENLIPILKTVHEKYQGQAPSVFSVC
Outline: as §1

| pIC50 (TYRO3) | pIC50 (AXL) | pIC50 (ITK) | pIC50 (TYK2) | Compound |
| --- | --- | --- | --- | --- |
| > 6.30 | > 6.30 | ≤ 5.00 | ≤ 5.00 | COc1cc2nccc(Oc3ccc(NC(=O)c4cc(S(C)(=O)=O)n(-c5ccc(F)cc5)n4)c(F)c3)c2cc1OC [Ex71, N-(4-((6,7-dimethoxyquinolin-4-yl)oxy)-2-fluorophenyl)-1-(4-fluorophenyl)-5-(methylsulfonyl)-1H-pyrazole-3-carboxamide] |
|  | > 6.30 |  | 5.00 to 6.00 | COc1cc2nccc(Oc3ccc(NC(=O)c4cc(S(C)(=O)=O)n(-c5ccc(F)cc5)n4)cc3)c2cc1OC [Ex72, N-(4-((6,7-dimethoxyquinolin-4-yl)oxy)phenyl)-1-(4-fluorophenyl)-5-(methylsulfonyl)-1H-pyrazole-3-carboxamide] |
| 5.00 to 6.00 | > 6.30 | 5.00 to 6.00 |  | COc1cc2nccc(Oc3ccc(NC(=O)c4cc(S(C)(=O)=O)n(-c5ccc(F)cc5)n4)cc3F)c2cc1OC [Ex73, N-(4-((6,7-dimethoxyquinolin-4-yl)oxy)-3-fluorophenyl)-1-(4-fluorophenyl)-5-(methylsulfonyl)-1H-pyrazole-3-carboxamide] |
